According to PMC10854695, “Using Flavonoid Substitution Status to Predict Anticancer Effects in Human Melanoma Cancers: An In Vitro Study” (Cancers, 2024):
Like-named read-outs stand apart in the source and are kept apart here.

Tests used:
A375 melanoma cells [1] = experiment: Neutral red uptake (NRU) assay, A375; settings: Homo sapiens, read-out: IC50, cytotoxic activity, NRU assay
Procedure: (§1) The NRU (neutral red uptake) was conducted as previously described by Szoka and co-workers, with some modifications [22]. Briefly, melanoma cells and fibroblasts were seeded in microplates at the density of 1 × 10^4 cells per well and allowed to adhere for 24 h. […] After treatment, the culture medium was replaced with a neutral red solution (40 µg/mL). An additional 2 h of incubation was performed. The neutral red solution was then removed and the neutral red accumulated in the cells was dissolved in 50% EtOH with 1% of the glacial acetic acid. The absorbance was estimated at 540 nm and IC50 values were calculated using GraphPad Prism software (GraphPad Software, San Diego, CA, USA).

[2] = Neutral red uptake (NRU) assay, normal cells; settings: human, human skin fibroblasts (CCD25Sk)
Procedure: as §1

in vitro = settings: human
Procedure: (§2) The MTT colorimetric assay was performed as a preliminary evaluation of the cytotoxicity of the selected flavonoids according to the method described and validated by Strawa et al. [21]. Briefly, melanoma cells and fibroblasts were seeded in 96-well microplates at a density of 1 × 10^4 cells per well. Fibroblasts were used as a control cell line in order to assess the selectivity of the compounds. […] Subsequently, the cells were washed with PBS, incubated with MTT solution for 2 h, and lysed with dimethyl sulfoxide (DMSO) supplemented with 1% (v/v) Sorensen’s glycine buffer. The absorbance was measured using a microplate reader (EPOCH 2, BioTek, Winooski, VT, USA) at a wavelength of 570 nm. The compounds were used at a final DMSO concentration of no more than 0.1% (v/v) in each well. The results were generated from at least three independent experiments. […] The IC50 values were calculated with GraphPad Prism 9 software (GraphPad Software, San Diego, CA, USA).

C32 melanoma cells [3] = experiment: MTT cell viability assay, C32; settings: Homo sapiens, read-out: IC50, cytotoxic activity, MTT test;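 note: MTT added for 2 h, cells lysed in DMSO, absorbance read at 570 nm, compound vehicle kept at or below 0.1% DMSO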
Procedure: as §2

A375 melanoma cells [4] = experiment: MTT cell viability assay, A375; settings: Homo sapiens;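 note: Read-out is formazan absorbance at 570 nm after 2 h with MTT, with compounds in at most 0.1% v/v DMSO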
C32 melanoma cells [5] = experiment: Neutral red uptake (NRU) assay, C32; settings: Homo sapiens
Procedure: as §1

[6] = test system: cleaved caspase-3 and cleaved caspase-7 in C32 cells; experiment: Immunofluorescence of cleaved caspase-3/-7, C32; assay type: cell-based, human; settings: C32, 48 h, immunofluorescent staining
Procedure: Firstly, to examine fluorescent signals, cells were placed in the bottom of 96-well black plates at 1 × 10^4 cells per well and permitted to adhere for 24 h. […] After incubating and removing the medium, cells were fixed in 4% paraformaldehyde for 15 min. Later, cells were rinsed three times with PBS and permeabilized with 0.1% Triton X-100 for 5 min at room temperature. The 10% heat-inactivated goat serum in the PBS was used to block non-specific binding. Subsequently, cells were treated with the following antibodies overnight: anti-cleaved caspase 3 and anti-cleaved caspase-7. […] Cell nuclei were stained with Hoechst 33342 and F-actin was stained with Phalloidin-Atto 488. Fluorescent signals were captured using a BD Pathway 855 confocal microscope (Becton Dickinson, Franklin Lakes, NJ, USA). The mean fluorescence intensity was calculated using ImageJ software (National Institutes of Health, Bethesda, Rockville, MD, USA).

[7] = MTT cell viability assay, normal cells; settings: human, human skin fibroblasts (CCD25Sk);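 note: fibroblasts served as non-cancer comparison line for selectivity versus melanoma cells, MTT reduction read as absorbance at 570 nm after 2 h dye exposure, compounds in ≤0.1% DMSO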
Procedure: as §2

[8] = test system: caspases, PARP, phospho-RSK in C32 cells; experiment: Western immunoblot of apoptosis mediators and RSK, C32; assay type: cell-based, human; settings: C32, 48 h, Western blot
Procedure: (§3) Floating cells were harvested by centrifugation of the conditioned media (300× g, 5 min). Cell pellet and adherent cells were lysed in a cell lysis buffer supplemented with inhibitors of proteases and phosphatases. The cell lysate was sonicated (2 × 10 s) on ice with an ultrasonic homogenizer (UP200S, Hielscher Ultrasonics GmbH, Teltow, Germany) and centrifuged for 10 min at 10,000× g. The supernatant was collected and stored in a freezer at −70 °C. Protein concentrations in the cell supernatants were determined using a Lowry assay. Obtained proteins were dissolved on SDS-PAGE gels (7.5%, 10%, or 12%) using the Mini-Protean Tetra system. The proteins were transferred to nitrocellulose membranes using the Mini Trans-Blot Cell wet blotting system. The 5% skim milk was used to block membranes. Then, membranes were probed for 24 h at 4 °C with the following antibodies: anti-phospho-RSK, anti-RSK, anti-PARP, anti-cleaved PARP, anti-caspase-8, anti-caspase-9, anti-caspase-7, anti-caspase-3, and anti-actin. Membranes were incubated with an ECL-HRP (enhanced chemiluminescence-horseradish peroxidase) substrate, and the signal was spotted using the BioSpectrum Imaging System and VisionWorks LS software 7.0 (Ultra-Violet Products, Ltd., San Gabriel, CA, USA). The intensity of the bands was quantified by densitometric analysis using UVIBand software, version 15.08d (Uvitec Ltd., Cambridge, UK).

[9] = test system: human skin fibroblasts (CCD25Sk); experiment: [3H]-thymidine incorporation (DNA biosynthesis), normal cells; assay type: cell-based; settings: Homo sapiens, Skin fibroblast, read-out: IC50, effect on DNA biosynthesis ([3H]-thymidine incorporation)
Procedure: (§4) The inhibition of DNA biosynthesis was evaluated using [^3H]-thymidine incorporation into the DNA of melanoma cells (C32, A375) and fibroblasts treated with the studied compounds [21]. The cells were briefly seeded in 24-well plates (1 × 10^5 cells per well) and allowed to adhere for 24 h. […] After incubation for 24, 48, and 72 h, the cells were rinsed three times with PBS. Then, cells were lysed in 1 mL of 0.1 M NaOH containing 1% SDS. The cell lysate was moved into scintillation vials containing scintillation liquid, and the radioactivity of the samples was measured using a liquid scintillation analyzer (Perkin-Elmer, Waltham, MA, USA).

[10] = test system: caspases, PARP, phospho-RSK in A375 cells; experiment: Western immunoblot of apoptosis mediators and RSK, A375; assay type: cell-based, human; settings: A375, 48 h, Western blot
Procedure: as §3

A375 melanoma cells [11] = experiment: Apoptosis assay, annexin V/PI flow cytometry, A375; assay type: cell-based, human; settings: A375, 25 µM, 48 h
Procedure: Firstly, cells were placed in 6-well plates at a density of 1 × 10^5 cells per well and allowed to adhere for 24 h. Then, cells were treated with 25 µM, 50 µM, and 100 μM of the selected flavonoids (1, 6, 15, 16, 17, 37) and incubated for 48 h. Floating and adherent cells were collected and assayed using the manufacturer’s protocol supported by the Dead Cell Apoptosis Kit for flow cytometry. Concisely, 100 μL of an annexin-binding buffer containing a 5 μL annexin V-FITC conjugate solution and 1 μg/mL PI (propidium iodide) was used to disperse the cells. After 15 min of incubation, an additional 400 μL of the mentioned buffer was added. The cells were analyzed with a DxFLEX flow cytometer (Beckman Coulter, Brea, CA, USA).

A375 melanoma cells [12] = experiment: [3H]-thymidine incorporation (DNA biosynthesis), A375; assay type: cell-based, human; settings: read-out: IC50, effect on DNA biosynthesis ([3H]-thymidine incorporation)
C32 melanoma cells [13] = experiment: [3H]-thymidine incorporation (DNA biosynthesis), C32; assay type: cell-based, human; settings: read-out: IC50, effect on DNA biosynthesis ([3H]-thymidine incorporation)
Procedure: as §4

[14] = A-375, 24 h, read-out: IC50, cytotoxic activity, MTT test, A375, 24 h
[15] = A-375, 48 h, read-out: IC50, cytotoxic activity, MTT test, A375, 48 h
[16] = A-375, 72 h, read-out: IC50, cytotoxic activity, MTT test, A375, 72 h
[17] = C32, 24 h, read-out: IC50, cytotoxic activity, NRU assay, C32, 24 h
[18] = C32, 48 h, read-out: IC50, cytotoxic activity, NRU assay, C32, 48 h
[19] = C32, 72 h, read-out: IC50, cytotoxic activity, NRU assay, C32, 72 h

SMILES | IC50 (A375 melanoma cells [1]; A-375, 24 h) [µM] | IC50 (A375 melanoma cells [1]; A-375, 48 h) [µM] | IC50 (A375 melanoma cells [1]; A-375, 72 h) [µM] | IC50 at 24 h [2] [µM] | IC50 at 48 h [2] [µM] | IC50 at 72 h [2] [µM] | IC50 at 24 h (in vitro) [µM] | IC50 at 48 h (in vitro) [µM] | IC50 at 72 h (in vitro) [µM] | IC50 (C32 melanoma cells [3]; C32, 24 h) [µM] | IC50 (C32 melanoma cells [3]; C32, 48 h) [µM] | IC50 (C32 melanoma cells [3]; C32, 72 h) [µM] | IC50 (A375 melanoma cells [4]; [14]) [µM] | IC50 (A375 melanoma cells [4]; [15]) [µM] | IC50 (A375 melanoma cells [4]; [16]) [µM] | IC50 (C32 melanoma cells [5]; [17]) [µM] | IC50 (C32 melanoma cells [5]; [18]) [µM] | IC50 (C32 melanoma cells [5]; [19]) [µM] | other results
O=c1cc(-c2ccc(O)c(O)c2)oc2cc(OC3OC(CO)C(O)C(O)C3O)cc(O)c12 (stereo not shown) [Compound 7, luteolin 7-O-glucoside] | > 200 | 56.7 ± 3.8 | 41.5 ± 3.3 | > 200 | 100 to 200 | 100 to 200 | > 200 | > 200 | > 200 | > 200 | 60.5 ± 4.6 | 40.7 ± 2.9 | > 200 | > 200 | 37.1 ± 3 | > 200 | 29.6 ± 2 | 23 ± 2.1 | 
O=C(O)C1OC(Oc2cc(O)c3c(=O)cc(-c4ccc(O)c(O)c4)oc3c2)C(O)C(O)C1O (stereo not shown) [Compound 8, luteolin 7-O-glucuronide] | > 200 | > 200 | > 200 | > 200 | > 200 | > 200 | > 200 | > 200 | > 200 | > 200 | > 200 | > 200 | > 200 | > 200 | > 200 | > 200 | > 200 | > 200 | 
O=c1cc(-c2ccccc2)oc2cc(O)cc(O)c12 [Compound 14, chrysin] | 52.4 ± 3.5 | 34.5 ± 2.3 | 33.1 ± 2.8 | 100 to 200 | 65.7 ± 4.2 | 76.3 ± 4.7 | > 200 | > 200 | 71.2 ± 4.5 | 100 to 200 | 96.4 ± 7 | 58.9 ± 4.5 | 100 to 200 | 66.4 ± 4.5 | 34.4 ± 2.8 | 89.2 ± 7.8 | 44.7 ± 3.9 | 25.6 ± 2.4 | 
O=c1cc(-c2ccccc2)oc2ccc(O)c(O)c12 [Compound 15, 5,6-dihydroxyflavone] | 53.3 ± 4.6 | 16 ± 1.1 | 13.6 ± 1.1 | > 200 | 100 to 200 | 100 to 200 |  |  |  | 100 to 200 | 47.5 ± 3.5 | 23.5 ± 1.9 | 86 ± 6.3 | 36.4 ± 2 | 26.4 ± 1.2 | 72.6 ± 5.5 | 18.2 ± 2.1 | 15.4 ± 1.1 | caspase-3 expression [6]: notably extended; IC50 at 24 h [7]: > 200 µM; IC50 at 48 h [7]: > 200 µM; IC50 at 72 h [7]: > 200 µM; cleaved PARP and caspase-9 [8]: generated cleaved PARP and caspase-9; IC50 ([9]; 24 h): 175 ± 7.6 µM; IC50 ([9]; 48 h): > 200 µM; IC50 ([9]; 72 h): > 200 µM; expression of cleaved caspase-8 [10]: increased; level of early apoptotic cells (A375 melanoma cells [11]): 42.0 ± 4.5%; level of late apoptotic cells (A375 melanoma cells [11]): 8.9 ± 2.2%; IC50 (A375 melanoma cells [12]; A375, 48 h): 32.4 ± 2.4 µM; IC50 (A375 melanoma cells [12]; Homo sapiens, A-375, A375, 24 h): > 200 µM; IC50 (A375 melanoma cells [12]; Homo sapiens, A-375, A375, 48 h): 32.4 ± 0.49 µM; IC50 (A375 melanoma cells [12]; Homo sapiens, A-375, A375, 72 h): 31.4 ± 1.7 µM; IC50 (C32 melanoma cells [13]; C32, 48 h): 20 ± 1.9 µM; IC50 (C32 melanoma cells [13]; Homo sapiens, C32, C32, 24 h): > 200 µM; IC50 (C32 melanoma cells [13]; Homo sapiens, C32, C32, 48 h): 20.1 ± 0.98 µM; IC50 (C32 melanoma cells [13]; Homo sapiens, C32, C32, 72 h): 20.3 ± 1.2 µM
